Measurements from BindingDB's records for PubMed 20126400 (University of Oklahoma, 2010).
pIC50, pKi: −log10 of the molar value. “And” between values parts separate entries of the source, which are not always exact repeats. Equal entries are not always repeated.

Assays:
[1] = target: ATP-dependent translocase ABCB1 (Homo sapiens, UniProt P08183); assay: Ray2010 Assay 74
Description: (§1) Table S2 shows raw Ki data for the current study combined with data collected from the literature for the ten additional compounds.

[2] = target: T1, 5-hydroxytryptamine receptor 1A (Homo sapiens, UniProt P08908); assay: Ray2010 Assay 28
T1 sequence (P08908 whole entry): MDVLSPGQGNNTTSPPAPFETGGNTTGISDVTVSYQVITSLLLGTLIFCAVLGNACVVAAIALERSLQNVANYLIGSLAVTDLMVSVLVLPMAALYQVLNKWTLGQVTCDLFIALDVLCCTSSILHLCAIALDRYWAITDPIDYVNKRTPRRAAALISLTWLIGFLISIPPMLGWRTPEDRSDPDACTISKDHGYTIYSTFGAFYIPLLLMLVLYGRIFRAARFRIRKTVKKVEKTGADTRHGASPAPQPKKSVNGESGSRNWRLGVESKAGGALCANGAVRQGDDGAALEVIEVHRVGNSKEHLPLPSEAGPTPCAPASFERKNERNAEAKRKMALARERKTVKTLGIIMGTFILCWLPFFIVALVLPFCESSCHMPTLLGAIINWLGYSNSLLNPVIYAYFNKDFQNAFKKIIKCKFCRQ
Description: 8-oh-dpat cloned PDSP web; .

[3] = target: T2, Muscarinic acetylcholine receptor M2 (Rattus norvegicus, UniProt P10980); assay: Ray2010 Assay 50
Description: AF-DX384 forebrain .

[4] = target: Muscarinic acetylcholine receptor (UniProt F1N5C5); assay: Ray2010 Assay 45
Description: pirenzepine hippocampus .

[5] = target: T3, Glutamate receptor ionotropic, NMDA 2D (Rattus norvegicus, UniProt Q62645); assay: Ray2010 Assay 64
Description: MK-801 Thalamus + hypothalamus .

[6] = target: 5-hydroxytryptamine receptor 2A (Rattus norvegicus, UniProt P14842); assay: Ray2010 Assay 25
Description: ketanserin cloned PDSP web; .

[7] = target: T3, Glutamate receptor ionotropic, NMDA 2D; assay: Ray2010 Assay 62
Description: MK-801 hippocampus .

[8] = target: T3, Glutamate receptor ionotropic, NMDA 2D; assay: Ray2010 Assay 66
Description: MK-801 midbrain .

D(3) dopamine receptor = D(3) dopamine receptor (Bos taurus, UniProt F1N454); assay: Ray2010 Assay 33
Description: 7-OH-DPAT caudate .

[9] = target: T3, Glutamate receptor ionotropic, NMDA 2D; assay: Ray2010 Assay 67
Description: MK-801 cerebellum .

[10] = target: Muscarinic acetylcholine receptor M2 (Bos taurus, UniProt P41985); assay: Ray2010 Assay 49
Description: QBN cortex .

[11] = target: Beta-1 adrenergic receptor (Rattus norvegicus, UniProt P18090); assay: Ray2010 Assay 35
Description: dihydro-alprenalol HCL cortex .

Mu-type opioid receptor = Mu-type opioid receptor (Bos taurus, UniProt P79350); assay: Ray2010 Assay 55
Description: DAGO cortex .

D(2) dopamine receptor = D(2) dopamine receptor (Homo sapiens, UniProt P14416); assay: Ray2010 Assay 32
Description: YM 09191-2 cloned PDSP web; .

[12] = target: T3, Glutamate receptor ionotropic, NMDA 2D; assay: Ray2010 Assay 68
Description: MK-801 basal forebrain .

[13] = target: Gamma-aminobutyric acid receptor subunit alpha-1 (Bos taurus, UniProt P08219); assay: Ray2010 Assay 70
Description: muscimol cortex .

[14] = target: T3, Glutamate receptor ionotropic, NMDA 2D; assay: Ray2010 Assay 65
Description: MK-801 spinal cord .

D(4) dopamine receptor = target: T4, D(4) dopamine receptor (Homo sapiens, UniProt P21917); assay: Ray2010 Assay 34
T4 sequence (P21917 whole entry): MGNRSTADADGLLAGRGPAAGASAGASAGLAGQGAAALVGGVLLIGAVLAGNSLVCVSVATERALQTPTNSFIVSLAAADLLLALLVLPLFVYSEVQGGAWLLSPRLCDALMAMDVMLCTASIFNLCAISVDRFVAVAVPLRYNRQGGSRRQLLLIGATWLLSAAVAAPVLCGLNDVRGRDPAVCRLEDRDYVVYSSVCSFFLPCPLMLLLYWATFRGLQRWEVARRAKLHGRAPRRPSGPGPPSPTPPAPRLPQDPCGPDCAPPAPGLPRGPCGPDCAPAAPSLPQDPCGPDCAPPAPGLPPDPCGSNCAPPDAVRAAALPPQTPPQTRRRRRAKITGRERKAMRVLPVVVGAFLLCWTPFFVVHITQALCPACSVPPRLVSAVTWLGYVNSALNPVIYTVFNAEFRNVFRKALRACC
Description: spiperone cloned .

[15] = target: Muscarinic acetylcholine receptor M1 (Rattus norvegicus, UniProt P08482); assay: Ray2010 Assay 47
Description: pirenzepine forebrain .

[16] = target: Sigma non-opioid intracellular receptor 1 (Cavia porcellus, UniProt Q60492); assay: Ray2010 Assay 39
Description: (+)-pentazocine brain Mach et al.1995.

[17] = target: Muscarinic acetylcholine receptor M3 (Rattus norvegicus, UniProt P08483); assay: Ray2010 Assay 48
Description: (§2) N-methylacoblamine forebrain .

[18] = target: T2, Muscarinic acetylcholine receptor M2; assay: Ray2010 Assay 48
Description: as §2

[19] = target: 5-hydroxytryptamine receptor 1D (UniProt F1MMU1); assay: Ray2010 Assay 30
Description: 5-HT caudate .

[20] = target: T3, Glutamate receptor ionotropic, NMDA 2D; assay: Ray2010 Assay 69
Description: dizocilpine forebrain .

[21] = target: Sigma non-opioid intracellular receptor 1 (UniProt Q58DH7); assay: Ray2010 Assay 40
Description: (+)-pentazocine caudate .

[22] = target: Sigma intracellular receptor 2 (Rattus norvegicus, UniProt Q5U3Y7); assay: Ray2010 Assay 42
Description: DTG liver .

[23] = target: Neuronal acetylcholine receptor subunit alpha-2/beta-4 (Homo sapiens, UniProt Q15822+P30926); assay: Ray2010 Assay 74
Description: as §1

[24] = target: Neuronal acetylcholine receptor subunit alpha-4/beta-2 (Homo sapiens, UniProt P43681+P17787); assay: Ray2010 Assay 74
Description: as §1

[25] = target: Alpha-2B adrenergic receptor (Homo sapiens, UniProt P18089); assay: Ray2010 Assay 74
Description: as §1

[26] = target: Neuronal acetylcholine receptor subunit alpha-4/beta-4 (Homo sapiens, UniProt P43681+P30926); assay: Ray2010 Assay 74
Description: as §1

T3 sequence (Q62645 whole entry): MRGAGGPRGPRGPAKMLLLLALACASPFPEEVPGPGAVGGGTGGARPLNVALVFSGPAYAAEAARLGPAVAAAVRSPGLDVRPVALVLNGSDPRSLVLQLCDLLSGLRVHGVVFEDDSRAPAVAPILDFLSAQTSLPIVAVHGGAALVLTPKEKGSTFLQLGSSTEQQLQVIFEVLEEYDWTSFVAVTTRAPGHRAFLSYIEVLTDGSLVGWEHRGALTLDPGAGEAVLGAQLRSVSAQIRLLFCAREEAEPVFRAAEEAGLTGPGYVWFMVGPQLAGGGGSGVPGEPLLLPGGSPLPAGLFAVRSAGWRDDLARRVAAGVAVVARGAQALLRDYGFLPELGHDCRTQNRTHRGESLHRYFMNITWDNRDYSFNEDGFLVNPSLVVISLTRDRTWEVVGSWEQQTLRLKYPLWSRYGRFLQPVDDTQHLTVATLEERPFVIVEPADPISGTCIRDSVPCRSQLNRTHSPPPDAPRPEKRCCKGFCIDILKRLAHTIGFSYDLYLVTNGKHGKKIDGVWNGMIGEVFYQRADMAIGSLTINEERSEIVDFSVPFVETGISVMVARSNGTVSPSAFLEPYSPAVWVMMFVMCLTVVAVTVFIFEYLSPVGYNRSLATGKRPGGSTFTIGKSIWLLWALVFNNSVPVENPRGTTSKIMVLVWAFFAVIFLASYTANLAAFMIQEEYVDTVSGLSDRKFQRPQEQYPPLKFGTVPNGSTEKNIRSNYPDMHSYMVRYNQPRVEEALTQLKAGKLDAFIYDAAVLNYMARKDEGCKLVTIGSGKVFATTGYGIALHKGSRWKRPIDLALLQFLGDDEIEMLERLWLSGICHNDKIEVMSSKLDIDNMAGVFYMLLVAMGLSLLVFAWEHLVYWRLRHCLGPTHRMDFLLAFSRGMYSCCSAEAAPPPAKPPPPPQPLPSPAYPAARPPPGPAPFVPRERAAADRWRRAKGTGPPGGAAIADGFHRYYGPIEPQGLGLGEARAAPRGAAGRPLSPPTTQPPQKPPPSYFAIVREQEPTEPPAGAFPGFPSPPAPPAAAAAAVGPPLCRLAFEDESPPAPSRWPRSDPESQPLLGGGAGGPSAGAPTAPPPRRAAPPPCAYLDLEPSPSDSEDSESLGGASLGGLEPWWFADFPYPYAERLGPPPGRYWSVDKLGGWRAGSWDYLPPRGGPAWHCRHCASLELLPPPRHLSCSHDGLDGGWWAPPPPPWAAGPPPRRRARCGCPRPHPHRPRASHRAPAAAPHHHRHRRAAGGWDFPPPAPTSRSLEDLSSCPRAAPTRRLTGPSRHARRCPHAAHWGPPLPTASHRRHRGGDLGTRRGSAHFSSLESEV
ATP-dependent translocase ABCB1, sequence (P08183 whole entry): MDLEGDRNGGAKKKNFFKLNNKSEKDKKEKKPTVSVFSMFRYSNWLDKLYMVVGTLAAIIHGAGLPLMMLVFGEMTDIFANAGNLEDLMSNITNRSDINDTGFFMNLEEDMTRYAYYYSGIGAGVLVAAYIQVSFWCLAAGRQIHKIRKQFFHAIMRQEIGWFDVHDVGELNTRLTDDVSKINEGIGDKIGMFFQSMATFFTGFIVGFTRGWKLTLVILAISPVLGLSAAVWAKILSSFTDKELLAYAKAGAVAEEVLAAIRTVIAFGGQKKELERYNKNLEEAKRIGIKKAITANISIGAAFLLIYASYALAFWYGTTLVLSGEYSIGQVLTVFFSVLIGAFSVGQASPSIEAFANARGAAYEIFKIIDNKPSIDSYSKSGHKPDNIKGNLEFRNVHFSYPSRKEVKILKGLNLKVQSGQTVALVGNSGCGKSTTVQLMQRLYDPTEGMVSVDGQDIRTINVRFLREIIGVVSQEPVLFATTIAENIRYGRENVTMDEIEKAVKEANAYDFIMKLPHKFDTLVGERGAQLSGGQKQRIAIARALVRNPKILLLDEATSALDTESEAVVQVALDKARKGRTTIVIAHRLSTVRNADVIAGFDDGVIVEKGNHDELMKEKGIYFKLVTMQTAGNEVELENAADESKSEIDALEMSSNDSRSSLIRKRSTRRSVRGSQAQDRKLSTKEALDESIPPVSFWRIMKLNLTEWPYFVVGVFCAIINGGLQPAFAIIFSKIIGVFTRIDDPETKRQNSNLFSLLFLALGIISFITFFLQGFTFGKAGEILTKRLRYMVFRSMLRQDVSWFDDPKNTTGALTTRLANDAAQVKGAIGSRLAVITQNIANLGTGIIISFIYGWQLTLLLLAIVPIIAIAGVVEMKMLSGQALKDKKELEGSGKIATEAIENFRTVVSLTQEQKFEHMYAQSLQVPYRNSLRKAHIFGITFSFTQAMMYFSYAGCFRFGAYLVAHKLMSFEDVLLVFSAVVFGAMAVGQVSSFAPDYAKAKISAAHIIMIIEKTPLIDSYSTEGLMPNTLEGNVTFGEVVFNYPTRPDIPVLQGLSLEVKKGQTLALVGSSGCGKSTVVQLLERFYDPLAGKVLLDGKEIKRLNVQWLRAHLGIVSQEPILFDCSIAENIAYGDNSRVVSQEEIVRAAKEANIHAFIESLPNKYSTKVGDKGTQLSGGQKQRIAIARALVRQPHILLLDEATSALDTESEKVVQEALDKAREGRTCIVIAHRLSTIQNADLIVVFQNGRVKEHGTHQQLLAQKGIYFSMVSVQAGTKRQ
Mu-type opioid receptor, sequence (P79350 whole entry): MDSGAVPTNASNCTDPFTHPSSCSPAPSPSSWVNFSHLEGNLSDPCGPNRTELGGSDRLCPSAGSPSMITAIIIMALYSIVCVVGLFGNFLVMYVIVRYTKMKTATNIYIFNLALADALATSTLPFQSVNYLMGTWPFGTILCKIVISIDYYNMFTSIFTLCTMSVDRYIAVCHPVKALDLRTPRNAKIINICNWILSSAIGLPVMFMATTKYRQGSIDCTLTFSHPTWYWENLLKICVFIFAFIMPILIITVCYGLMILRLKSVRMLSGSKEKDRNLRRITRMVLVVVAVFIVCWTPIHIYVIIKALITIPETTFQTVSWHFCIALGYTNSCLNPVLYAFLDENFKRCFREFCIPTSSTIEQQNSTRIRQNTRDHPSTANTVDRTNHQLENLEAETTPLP
T2 sequence (P10980 whole entry): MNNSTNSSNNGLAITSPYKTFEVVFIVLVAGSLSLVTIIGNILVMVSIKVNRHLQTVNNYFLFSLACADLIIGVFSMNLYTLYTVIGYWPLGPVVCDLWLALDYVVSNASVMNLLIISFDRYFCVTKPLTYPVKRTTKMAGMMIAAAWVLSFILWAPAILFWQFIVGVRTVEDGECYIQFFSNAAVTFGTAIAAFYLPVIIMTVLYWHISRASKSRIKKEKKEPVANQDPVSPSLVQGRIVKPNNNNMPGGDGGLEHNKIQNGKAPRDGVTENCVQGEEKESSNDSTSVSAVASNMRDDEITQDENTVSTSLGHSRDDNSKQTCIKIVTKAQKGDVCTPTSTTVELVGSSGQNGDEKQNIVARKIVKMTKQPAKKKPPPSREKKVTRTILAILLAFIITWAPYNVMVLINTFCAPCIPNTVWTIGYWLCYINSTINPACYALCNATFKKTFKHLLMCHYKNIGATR
5-hydroxytryptamine receptor 1D, sequence (F1MMU1 whole entry): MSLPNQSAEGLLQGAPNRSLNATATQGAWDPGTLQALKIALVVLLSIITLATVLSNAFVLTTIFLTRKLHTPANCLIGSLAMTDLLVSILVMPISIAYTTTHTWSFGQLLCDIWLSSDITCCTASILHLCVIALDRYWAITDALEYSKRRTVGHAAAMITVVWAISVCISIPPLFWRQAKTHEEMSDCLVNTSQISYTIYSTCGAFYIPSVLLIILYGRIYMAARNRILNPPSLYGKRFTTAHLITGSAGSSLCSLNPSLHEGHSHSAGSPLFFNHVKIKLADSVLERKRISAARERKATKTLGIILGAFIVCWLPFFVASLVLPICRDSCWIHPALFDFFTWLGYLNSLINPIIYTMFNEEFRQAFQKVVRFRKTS
Muscarinic acetylcholine receptor M3, sequence (P08483 whole entry): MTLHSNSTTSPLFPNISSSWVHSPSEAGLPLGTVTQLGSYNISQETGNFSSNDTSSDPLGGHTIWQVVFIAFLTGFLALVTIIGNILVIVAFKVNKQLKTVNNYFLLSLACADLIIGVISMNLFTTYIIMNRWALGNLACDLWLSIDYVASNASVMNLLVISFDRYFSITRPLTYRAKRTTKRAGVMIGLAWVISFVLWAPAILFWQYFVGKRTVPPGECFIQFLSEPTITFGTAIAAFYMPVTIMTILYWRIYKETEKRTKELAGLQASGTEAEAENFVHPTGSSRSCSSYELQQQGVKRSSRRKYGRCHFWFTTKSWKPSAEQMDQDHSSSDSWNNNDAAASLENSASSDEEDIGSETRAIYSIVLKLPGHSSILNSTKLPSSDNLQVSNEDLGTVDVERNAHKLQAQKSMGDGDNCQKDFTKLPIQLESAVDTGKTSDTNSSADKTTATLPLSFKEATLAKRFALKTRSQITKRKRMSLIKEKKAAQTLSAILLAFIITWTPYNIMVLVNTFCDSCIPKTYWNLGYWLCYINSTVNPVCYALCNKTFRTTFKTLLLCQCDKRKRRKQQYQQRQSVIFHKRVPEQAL
Gamma-aminobutyric acid receptor subunit alpha-1, sequence (P08219 whole entry): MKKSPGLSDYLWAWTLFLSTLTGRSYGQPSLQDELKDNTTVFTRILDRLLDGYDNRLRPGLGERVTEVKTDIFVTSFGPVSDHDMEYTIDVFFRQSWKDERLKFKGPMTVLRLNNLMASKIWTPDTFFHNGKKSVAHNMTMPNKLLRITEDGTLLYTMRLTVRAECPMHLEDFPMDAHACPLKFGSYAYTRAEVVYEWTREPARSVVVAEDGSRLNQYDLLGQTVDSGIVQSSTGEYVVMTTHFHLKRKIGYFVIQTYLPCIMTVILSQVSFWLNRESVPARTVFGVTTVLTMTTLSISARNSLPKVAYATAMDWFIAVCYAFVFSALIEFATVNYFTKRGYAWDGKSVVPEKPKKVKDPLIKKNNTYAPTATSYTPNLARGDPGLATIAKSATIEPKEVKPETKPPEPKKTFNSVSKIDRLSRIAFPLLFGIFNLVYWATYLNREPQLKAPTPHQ

## COc1cc(CC(C)N)cc(OC)c1OC (stereo unspecified)
[1]
  pKi: < 5.00

## CC[C@H]1C[C@@H]2C[C@H]3c4[nH]c5ccc(OC)cc5c4CCN(C2)[C@@H]13
[2]
  pKi: < 5.00
[3]
  pIC50: 5.23
[4]
  pKi: 4.50
[5]
  pKi: 5.70
[6]
  pKi: < 5.00
[7]
  pKi: 5.92
[8]
  pKi: 5.61
D(3) dopamine receptor
  pKi: 4.15
[9]
  pKi: 5.48
[10]
  pKi: 4.51
[11]
  pKi: < 4.00
Mu-type opioid receptor
  pKi: 4.96 and 5.70
D(2) dopamine receptor
  pKi: < 5.00
[12]
  pKi: 5.41
[13]
  pKi: < 4.00
[14]
  pKi: 5.65
D(4) dopamine receptor
  pIC50: < 4.00
[15]
  pIC50: 5.12
[16]
  pKi: 5.03
[17]
  pKi: 4.90
[18]
  pKi: 4.30
[19]
  pKi: < 4.00
[20]
  pIC50: 5.49
[21]
  pKi: 5.60
[22]
  pKi: 7.04

## CCc1cc(OC)c(CC(C)N)cc1OC (stereo unspecified)
[1]
  pKi: < 5.00

## CAS_82830-44-2::(2R)-1-(4-iodo-2,5-dimethoxyphenyl)propan-2-amine::DOI,(-)::US20250270173, Compound DOI
[23]
  pKi: < 5.00
[24]
  pKi: < 5.00
[25]
  pKi: 6.47
[26]
  pKi: < 5.00
